Laboratory results as given in US7541381B2, “Non-covalent inhibitors of AmpC β-lactamase” (Northwestern University, priority 2002, dated 2009).
In brackets after ≈: the same amount, converted by molar mass. Entries after “also recorded” stand apart in the source; their conditions may differ.

Tests used:
AmpC β-lactamase = target: T1, AmpC β-lactamase (Escherichia coli, UniProt P00811); experiment: biochemical; assay type: biochemical; conditions: for Ki: 50 mM TRIS pH 7.0, nitrocefin substrate, progress curve analysis; for change of AmpC inhibition/binding relative to compound 1: analogs of 1
T1 construct: made in house
Description: Enzymology. AmpC from Escherichia coli was expressed and purified to homogeneity as described in the literature. […] All were used without further purification. Kinetic measurements with AmpC were performed in 50 mM TRIS buffer, pH 7.0, using nitrocefin as a substrate. […] Reactions were initiated by the addition of 0.875 nM enzyme and monitored in methacrylate cuvettes. […] Ki values for the compounds were obtained by comparison of progress curves in the presence and absence of inhibitor.

[1] = tested on: JM109 E. coli expressing AmpC; experiment: Antimicrobial susceptibility testing (MIC), AmpC-expressing strain; assay type: cell-based
Description: (§1) Antimicrobial experiments. Susceptibility testing was performed and interpreted following the guidelines of the National Committee for Clinical Laboratory Standards. To test the inhibitory activity of 1, the compound was dissolved in 50% DMSO and dilutions were performed using Luria Broth growth medium.

[2] = tested on: JM109 that does not express AmpC; experiment: Antimicrobial susceptibility testing (MIC), strain without AmpC; assay type: cell-based, E. coli; conditions: Escherichia coli, read-out: MIC of ampicillin in JM109 that does not express AmpC
Description: as §1

β-trypsin = target: T2, β-trypsin (Bos taurus, UniProt P00760); experiment: biochemical; assay type: biochemical, bovine
T2 construct: β-trypsin (bovine pancreatic); purchased Sigma (St. Louis, Mo.); host or cells: bovine pancreas
Description: (§2) The substrates for α-chymotrypsin (succinyl-ala-ala-pro-phe-p-nitroanilide) and β-trypsin (N-benzoyl-L-arginine ethyl ester, BAEE) were also purchased from Sigma. The elastase substrate used (elastase substrate 1, MeOSuc-Ala-Ala-Pro-Val-pNA) was purchased from Calbiochem (San Diego, Calif.). Substrates were diluted from 10 mM DMSO stock solutions, and all reactions were performed in 50 mM TRIS buffer, pH 7.0, 25° C. For α-chymotrypsin, 200 μM of substrate was used; the reactions were initiated by addition of 10 μL of a 0.1 mg/ml enzyme stock solution and monitored at 410 nm. For β-trypsin, 200 μM of BAEE was used, the reactions were initiated by the addition of 5 μL of a 0.2 mg/ml enzyme stock solution, and monitored at 260 nm. For elastase, 640 μM of elastase substrate was used, the reactions were initiated by the addition of 30 μL of a 0.2 mg/mL enzyme stock solution, and monitored at 385 nm. Initial rate fits to the absorbance data for the first 150 seconds of each reaction were used to determine reaction velocities.

elastase = target: T3, elastase (Sus scrofa, UniProt P00772); experiment: elastase selectivity counter-screen; assay type: biochemical, porcine
T3 construct: purchased Sigma (St. Louis, Mo.); host or cells: porcine pancreas
Description: as §2

related serine amidases = experiment: Counter-screens against related serine amidases; assay type: biochemical
Description: as §2

α-chymotrypsin = target: T4, α-chymotrypsin (Bos taurus, UniProt P00766); experiment: biochemical; parameters: species or system bovine; conditions: 200 μM substrate, 50 mM TRIS pH 7.0, 25° C.
T4 construct: purchased Sigma (St. Louis, Mo.); host or cells: bovine pancreas
Description: as §2

T1 sequence (P00811 20-377): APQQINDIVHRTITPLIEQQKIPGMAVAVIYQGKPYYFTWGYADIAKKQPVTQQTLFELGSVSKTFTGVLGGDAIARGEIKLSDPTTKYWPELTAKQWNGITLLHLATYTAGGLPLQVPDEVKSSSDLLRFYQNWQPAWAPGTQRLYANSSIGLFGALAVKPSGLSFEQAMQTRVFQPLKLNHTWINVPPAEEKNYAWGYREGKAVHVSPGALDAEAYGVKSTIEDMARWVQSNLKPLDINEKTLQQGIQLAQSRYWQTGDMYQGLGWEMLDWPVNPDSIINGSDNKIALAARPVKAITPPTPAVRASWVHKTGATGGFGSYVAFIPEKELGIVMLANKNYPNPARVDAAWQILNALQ
T2 sequence (P00760 24-246): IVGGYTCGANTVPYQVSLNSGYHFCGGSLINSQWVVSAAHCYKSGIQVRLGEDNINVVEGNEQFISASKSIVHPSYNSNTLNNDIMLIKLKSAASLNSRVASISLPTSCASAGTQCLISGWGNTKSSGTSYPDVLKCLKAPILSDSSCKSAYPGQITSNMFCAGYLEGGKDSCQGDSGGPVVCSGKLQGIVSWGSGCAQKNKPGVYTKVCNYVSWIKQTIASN
T3 sequence (P00772 27-266): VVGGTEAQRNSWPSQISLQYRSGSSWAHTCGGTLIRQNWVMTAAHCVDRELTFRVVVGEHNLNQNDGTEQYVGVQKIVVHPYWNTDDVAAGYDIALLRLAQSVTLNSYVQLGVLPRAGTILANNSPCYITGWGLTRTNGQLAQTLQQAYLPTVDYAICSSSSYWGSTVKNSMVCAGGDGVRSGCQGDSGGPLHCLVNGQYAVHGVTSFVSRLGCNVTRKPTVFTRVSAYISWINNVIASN

Row | Compound | Ki (AmpC β-lactamase) [µM] | change of AmpC inhibition/binding relative to compound 1 (AmpC β-lactamase) | other results
1 | 3-([4-[3-chloro-5-(trifluoromethyl)pyridin-2-yl]piperazino]sulfonyl)thiophene-2-carboxylate [Compound 6] | > 100 | hindered binding | –
2 | CC1(C)S[C@@H]2[C@H](NC(=O)[C@H](N)c3ccccc3)C(=O)N2[C@H]1C(=O)O [Ampicillin, ampicillin, reference compound] | – | – | MIC ([1]; Escherichia coli, read-out: MIC JM109/AmpC): 512 µg/mL (≈ 1470 µM); MIC [2]: 4 µg/mL
3 | O=C(O)c1sccc1S(=O)(=O)Nc1ccc(Cl)cc1 [Compound 1, 3-[(4-chloroanilino)sulfonyl]thiophene-2-carboxylic acid] | 23 | – | IC50 (β-trypsin; 200 μM BAEE, 50 mM TRIS pH 7.0, 25° C.): > 4000 µM; inhibition of trypsin (β-trypsin; at concentrations up to 4 mM): no inhibition; antibiotic activity of compound alone ([1]; at the concentration used in the ampicillin combination): no measurable antibiotic activity; increase in efficacy of ampicillin ([1]; bacterial cell culture, resistant strain): four-fold; minimum inhibitory concentration (MIC) of ampicillin in the presence of the compound ([1]; resistant strain overexpressing β-lactamase): 128 µg/mL; IC50 (elastase; 640 μM elastase substrate, 50 mM TRIS pH 7.0, 25° C.): > 4000 µM; inhibition of elastase (elastase; at concentrations up to 4 mM): no inhibition; inhibition of related serine amidases in counter-screens (related serine amidases): did not inhibit; mode of inhibition of AmpC (AmpC β-lactamase): competitive, non-covalent inhibitor; also recorded: competitive, reversible inhibitor; IC50 (α-chymotrypsin): > 1200 µM
4 | O=S(=O)(O)CCCSc1nc2ccccc2s1 [Compound 2, 3-(2-benzothiazolylthio)-1-propanesulfonic acid] | 318 | – | –
5 | O=C(O)CCSc1nc2ccccc2s1 [Compound 3, 3-(2-benzothiazolylthio)propionic acid] | 646 | – | –
6 | Cc1ccc(S(=O)(=O)Nc2csc(C)c2C(=O)O)cc1 [Compound 4, 2-methyl-4-[[(4-methylphenyl)sulfonyl]amino]thiophene-3-carboxylic acid] | 60 | diminished inhibition three-fold; also recorded: reduced binding by three-fold | –
7 | COC(=O)c1sccc1S(=O)(=O)Nc1ccc(Cl)cc1 [Compound 5, methyl 3-[(4-chloroanilino)sulfonyl]thiophene-2-carboxylate] | > 100 | compromised inhibition; also recorded: binding was somewhat problematic | –
8 | O=C(O)c1sccc1S(=O)(=O)Nc1ccccc1N1CCCCC1 [Compound 7, 3-[(2-piperidinoanilino)sulfonyl]thiophene-2-carboxylic acid] | 14 | slight improvement in affinity | –
9 | Cc1oc(C)c(S(=O)(=O)Nc2cccs2)c1C(=O)O [Compound 8, 2,5-dimethyl-4-(2-thienylaminosulfonyl)furan-3-carboxylic acid] | 64 | – | –
10 | COc1ccc(NS(=O)(=O)c2ccccc2[N+](=O)[O-])cc1 [Compound 9, N-(4-methoxyphenyl)-2-nitro-benzenesulfonamide] | > 100 | compromised inhibition; also recorded: binding was somewhat problematic | –
11 | O=C(Cc1cccs1)N[C@@H]1C(=O)N2C(C(=O)O)=C(/C=C/c3ccc([N+](=O)[O-])cc3[N+](=O)[O-])CS[C@H]12 [nitrocefin, reference compound] | – | – | Km (AmpC β-lactamase; read-out: Km of nitrocefin for AmpC, 50 mM TRIS buffer, pH 7.0): 127 µM
